Reference: US4501914A, “2-Hydroxy-3-(o-methoxy-phenoxy)propyl 2-(p-isobutyl-phenyl)-propionate and pharmaceutical compositions containing the same” (priority 1982, dated 1985)

Columns and labels:
[1] = system: bronchosecretogogue activity; assay: Bronchosecretogogue activity (Mawatari's technique); type: in vivo, Wistar rats; conditions: for % increase of FlNa (sodium fluorescein) with respect to controls: 500 mg/kg os
Experimental: Bronchosecretogogue activity was determined in Wistar rats by means of per os administration using the method of Mawatari (Mawatari H., Kagoshima Daiagaku Igaku-Zasshi, 27, 561 (1976), and comparing AFP 860 and guaiaphenesine at the dosages given below. The results are shown in Table 8.

[2] = system: bronchial secretion; assay: Mucosecretolytic activity (technique of Giraldez et al.); type: in vivo, male rabbits; conditions: for % increase of bronchial secretion over controls: 500 mg/kg os
Experimental: Mucosecretolytic action was tested on male rabbits using the technique of Giraldez, Grass and Bruseghini (Abstr.Comp.Int.Pharm. N. 1086--Paris 1978) by means of oral administration and comparing AFP 860 with guaiaphenesine at the dosages given below.

[3] = system: Subplantar oedema induced by carrageenin; assay: Anti-inflammatory activity - carrageenin oedema; type: in vivo, rats; conditions: for AREA % Absolute value / AREA % inhibition over controls: times 0-5
Experimental: The tests were carried out on rats, using a test in which a subplantar oedema was induced by carrageenin.
AFP 860 and, for comparison, 2-(p-isobutylphenyl)propionic acid (Ibuprofen) were administered orally 30 minutes before the carrageenin at the dosages specified below.
When the oedema had been induced, the animals in each group were monitored, every 60 minutes for 5 consecutive hours in order to ascertain the development of the inflammatory process.

[4] = system: contortions induced by phenylquinone; assay: Analgesic activity - phenylquinone contortions (Siegmund et al.); type: in vivo, mouse; conditions: for % inhib. over controls (contortions) / Mean No. of Contortions / No. animals undergoing contortions: 100 mg/kg os
[5] = system: muscle relaxation; assay: Muscle relaxant activity, metal grille test (Kondziella); type: in vivo; conditions: mouse, per os, AFP 860 150 mg/kg, mephenesine 100 mg/kg
Source text: Use was made of the method of Kondziella (1964) which consists in suspending the mice from a metal grille and in recording the number of animals which remain suspended for more than 30 seconds. The animals which fall off during this time period are considered to be subject to muscle relaxation.
A metal grille having a 7 mm mesh and a surface area of 2×2 m disposed horizontally at 1.5 m from the ground was used for this test. The mice were selected on the day preceding the test, rejecting those which fell within 30 seconds. These were then divided into 7 at random groups and starved. AFP 860 and, for comparison purposes, mephenesine both suspended in 1% carboxymethylcellulose were administered per os at dosages of 150 mg/kg in the case of AFP 860 and 100 mg/kg in the case of mephenesine. A third group of mice acting as the control received 1% CMC in equal volumes to those used for the mice treated with the drugs.
For each mouse the grille suspension tests were carried out 15 and 30 minutes after administration of the drugs in order to enable the evaluation of the time of maximum activity and then every 30 minutes until the muscle relaxant effect had completely disappeared in order to establish the duration of this effect.
The parameter used for evaluating the results was the percentage of animals subject to muscle relaxation with respect to those treated.

[6] = system: Hyperthermia induced by yeast; assay: Antipyretic activity - hyperthermia induced by yeast (Boisser et al.); type: in vivo, male rats; conditions: for Rectal Temperature, 1 h / Rectal Temperature, 2 h / Rectal Temperature, 3 h / Rectal Temperature, 4 h / Rectal Temperature, 5 h / Rectal Temperature, basic / % inhib. over controls (hyperthermia): p.o., Ibuprofen 100 mg/kg, AFP 860 150 mg/kg
[7] = system: Pleurisy induced by carrageenin; assay: Pleurisy induced by carrageenin (Vinegar et al.); type: in vivo, Sprague-Dawley rats; design: leukocytes × 1000: unit not given here; conditions: for % inhib. over control (leukocytes) / % inhib. over control (volume of exudate) / leukocytes × 1000 / Volume (pleural exudate): 100 mg/kg per os; for Volume (pleural exudate): unit assumed
Experimental: Sprague-Dawley rats of both sexes weighing between 150 and 200 g were used. The animals were divided into "at random" groups and were starved on the previous day with water ad lib.
The compounds in question were administered orally 30 minutes before the intrapleural injection at an equal dose by weight of 100 mg/kg.

[8] = Pulmonary tropism, Ibuprofen lung/plasma concentration ratio; type: in vivo, Charles River albino rats; conditions: rat
[9] = Pharmacokinetics, Ibuprofen plasma levels; type: in vivo, Charles River albino rats
[10] = system: gastric mucosa; assay: Gastrolesive action; conditions: for Mean dimensions (mm) Ulcers: 5 hours and 30 minutes after treatment, os, Ibuprofen 100 mg/kg, AFP 860 150 mg/kg
[11] = Acute toxicity (Litchfield and Wilcoxon's Method), mouse; conditions: in vivo, po, per os
Experimental: (§1) The acute toxicity was tested on various species of animal using Litchfield and Wilcoxon's Method (J. Pharm. Exp. Therap., 96, 99-113 (1949).

[12] = Acute toxicity (Litchfield and Wilcoxon's Method), rabbit; conditions: in vivo, po, per os
Experimental: as §1

[13] = Acute toxicity (Litchfield and Wilcoxon's Method), rat; conditions: in vivo, po, per os
Experimental: as §1

[14] = background statement; cited from earlier work
[15] = per os, Ibuprofen 100 mg/kg, AFP 860 150 mg/kg

## COc1ccccc1OCC(O)CO (stereo not shown) [Guaiaphenesine, 3-(o-methoxyphenoxy)-1,2-propandiol, reference compound]
[1]
  % increase of FlNa (sodium fluorescein) with respect to controls: 20.3%
[2]
  % increase of bronchial secretion over controls: 34.4%

## COc1ccccc1OCC(O)COC(=O)C(C)c1ccc(CC(C)C)cc1 (stereo not shown) [AFP 860, 2-hydroxy-3-(o-methoxyphenoxy)propyl 2-(p-isobutyl-phenyl)-propionate]
[3]; carrageenin oedema, compared with Ibuprofen
  anti-inflammatory activity (in words): excellent anti-inflammatory activity which is comparable to that of Ibuprofen
[3]; time 0, per os, Ibuprofen 100 mg/kg, AFP 860 150 mg/kg
  Mean paw volume during treatment, time 0: 22.1
[3]; time 1 (every 60 minutes), per os, Ibuprofen 100 mg/kg, AFP 860 150 mg/kg
  Mean paw volume during treatment, time 1: 27.1
[3]; time 2 (every 60 minutes), per os, Ibuprofen 100 mg/kg, AFP 860 150 mg/kg
  Mean paw volume during treatment, time 2: 30.2
[3]; time 3 (every 60 minutes), per os, Ibuprofen 100 mg/kg, AFP 860 150 mg/kg
  Mean paw volume during treatment, time 3: 31.6
[3]; time 4 (every 60 minutes), per os, Ibuprofen 100 mg/kg, AFP 860 150 mg/kg
  Mean paw volume during treatment, time 4: 32.2
[3]; time 5 (every 60 minutes), per os, Ibuprofen 100 mg/kg, AFP 860 150 mg/kg
  Mean paw volume during treatment, time 5: 34.7
[3]; [15]
  AREA % Absolute value: 176.5
  AREA % inhibition over controls: 43.2%
[4]; 100 mg/kg orally, compared with Ibuprofen at equal dosage by weight
  analgesic activity (in words): slightly inferior to that of Ibuprofen
[4]
  % inhib. over controls (contortions): 70.45%
  Mean No. of Contortions: 3.9 ± 1.4
  No. animals undergoing contortions: 2/10
[1]
  % increase of FlNa (sodium fluorescein) with respect to controls: 24.5%
[1]; compared with guaiaphenesine, equal doses by weight
  bronchosecretogogue effect (in words): considerable effect as a bronchosecretogogue which may in practice be considered superimposable to that of guaiaphenesine
[5]
  % animals subject to muscle relaxation: 60%
[6]
  Rectal Temperature, 1 h: 37.7 °C
  Rectal Temperature, 2 h: 37.7 °C
  Rectal Temperature, 3 h: 37.5 °C
  Rectal Temperature, 4 h: 37.3 °C
  Rectal Temperature, 5 h: 37.2 °C
  Rectal Temperature, basic: 38.4 °C
  % inhib. over controls (hyperthermia): 127.0%
[6]; compared with Ibuprofen
  antipyretic activity (in words): very good antipyretic activity, which is in practice the same as that of Ibuprofen
[7]; 5 hours
  % inhib. over control (leukocytes): 70.75%
  % inhib. over control (volume of exudate): 43.18%
  leukocytes × 1000: 5,130 × 1000
  Volume (pleural exudate): 0.54 mL
[7]; 24 hours
  % inhib. over control (leukocytes): 60.75%
  % inhib. over control (volume of exudate): 48.19%
  leukocytes × 1000: 7,190 × 1000
  Volume (pleural exudate): 0.43 mL
[7]; after 24 hours, compared with Ibuprofen
  protective action (in words): much greater than that of Ibuprofen
[7]; pleurisy, equal doses by weight, compared with the comparison drug (Ibuprofen)
  anti-inflammatory activity (in words): greater in absolute terms and of longer duration
[8]; in vivo
  pulmonary tropism (in words): marked pulmonary tropism
[9]; end of first hour to sixth hour, AFP 860 versus Ibuprofen per se
  Ibuprofen plasma levels (in words): higher after the administration of AFP 860 than after the administration of Ibuprofen per se
[9]; with respect to Ibuprofen and guaiaphenesine
  latency and bio-availability (in words): greater degree of latency and an improved bio-availability both with respect to Ibuprofen and guaiaphenesine
[10]
  Mean dimensions (mm) Ulcers: 0.8 ± 0.3 mm
[10]; compared with Ibuprofen
  gastrolesivity (in words): much lower than the Ibuprofen
[2]
  % increase of bronchial secretion over controls: 32.7%
[2]; compared with guaiaphenesine at the same dosages by weight
  secretolytic activity (in words): remarkable secretolytic activity which is comparable with that of guaiaphenesine
[11]
  LD50: 1850 mg/kg
[12]
  LD50: 3300 mg/kg
[13]
  LD50: 2510 mg/kg

## CC(C)Cc1ccc(C(C)C(=O)O)cc1 (stereo not shown) [Ibuprofen, 2-(p-isobutylphenyl)propionic acid, reference compound]
[3]; [15]
  AREA % Absolute value: 184.0
  AREA % inhibition over controls: 40.8%
[4]
  % inhib. over controls (contortions): 82.26%
  Mean No. of Contortions: 1.8 ± 0.6
  No. animals undergoing contortions: 1/10
[6]
  Rectal Temperature, 1 h: 38.0 °C
  Rectal Temperature, 2 h: 37.7 °C
  Rectal Temperature, 3 h: 37.3 °C
  Rectal Temperature, 4 h: 37.5 °C
  Rectal Temperature, 5 h: 37.4 °C
  Rectal Temperature, basic: 38.8 °C
  % inhib. over controls (hyperthermia): 119.0%
[7]; 5 hours
  % inhib. over control (leukocytes): 69.32%
  leukocytes × 1000: 5,380 × 1000
[7]; 24 hours
  % inhib. over control (leukocytes): 7.47%
  leukocytes × 1000: 16,950 × 1000
[8]; lung, po, 30 mins, per os, Ibuprofen 27 mg/kg, AFP 860 50 mg/kg, read-out: Ibuprofen concentration ratio between lung and plasma
  Kp at 0.5 h: 0.2
[8]; lung, po, 1 hour, per os, Ibuprofen 27 mg/kg, AFP 860 50 mg/kg, read-out: Ibuprofen concentration ratio between lung and plasma
  Kp at 1 h: 0.3
[9]; rat, plasma, po, after Ibuprofen 27 mg/kg per os, read-out: time of Ibuprofen peak in plasma (converted)
  Tmax: 30 min
[9]; rat, plasma, po, per os, equimolar: Ibuprofen 27 mg/kg, AFP 860 50 mg/kg, read-out: Ibuprofen peak plasma level
  Cmax: 24000 ng/mL
[9]; rat, plasma, po, per os, equimolar: Ibuprofen 27 mg/kg, AFP 860 50 mg/kg, read-out: area under the plasma level curve (AUC) for Ibuprofen
  AUC: 49000 ng·h/mL
[10]
  Mean dimensions (mm) Ulcers: 8.7 ± 1.4 mm
[14]
  gastric lesions (in words): considerable gastric lesions

## Cc1ccccc1OCC(O)CO (stereo not shown) [Mephenesine, reference compound]
[5]
  % animals subject to muscle relaxation: 60%
